PubChem BioAssay (NCI)
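Interpolation was linear, between the two tested concentrations surrounding the appropriate level; five concentrations were tested over 48 hours in 96-well plates. At the TGI there is no net growth.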

Key:
Assay in all cases: inhibition of tumour cell growth, NCI panel, 48 h
KM12 colon = tested on: KM12 colon
DU-145 prostate = tested on: DU-145 prostate
IGROV1 ovarian = tested on: IGROV1 ovarian
SK-OV-3 ovarian = tested on: SK-OV-3 ovarian
A549 NSCLC = tested on: A549 NSCLC
HT29 colon = tested on: HT29 colon
786-0 renal = tested on: 786-0 renal
UO-31 renal = tested on: UO-31 renal
T-47D breast = tested on: T-47D breast
HOP-62 NSCLC = tested on: HOP-62 NSCLC
A498 renal = tested on: A498 renal
NCI/ADR-RES ovarian = tested on: NCI/ADR-RES ovarian
NCI-H460 lung = tested on: NCI-H460 lung
HCT-15 colon = tested on: HCT-15 colon
RXF 393 renal = tested on: RXF 393 renal
MOLT-4 leukemia = tested on: MOLT-4 leukemia
RPMI-8226 leukemia = tested on: RPMI-8226 leukemia
SF-539 CNS = tested on: SF-539 CNS
EKVX NSCLC = tested on: EKVX NSCLC
SK-MEL-5 melanoma = tested on: SK-MEL-5 melanoma
UACC-62 melanoma = tested on: UACC-62 melanoma
LOX IMVI melanoma = tested on: LOX IMVI melanoma
OVCAR-5 ovarian = tested on: OVCAR-5 ovarian
COLO 205 colon = tested on: COLO 205 colon
CCRF-CEM leukemia = tested on: CCRF-CEM leukemia
SNB-75 CNS = tested on: SNB-75 CNS
OVCAR-8 ovarian = tested on: OVCAR-8 ovarian
OVCAR-3 ovarian = tested on: OVCAR-3 ovarian
MDA-MB-435 = tested on: MDA-MB-435
MDA-N = tested on: MDA-N
K-562 leukemia = tested on: K-562 leukemia
HCT-116 colon = tested on: HCT-116 colon
SF-295 CNS = tested on: SF-295 CNS
SW-620 colon = tested on: SW-620 colon
UACC-257 melanoma = tested on: UACC-257 melanoma
NCI-H226 lung = tested on: NCI-H226 lung
ACHN renal = tested on: ACHN renal
SR leukemia = tested on: SR leukemia
TK-10 renal = tested on: TK-10 renal
M14 melanoma = tested on: M14 melanoma
MCF7 breast = tested on: MCF7 breast
HOP-92 NSCLC = tested on: HOP-92 NSCLC
NCI-H522 lung = tested on: NCI-H522 lung
SF-268 CNS = tested on: SF-268 CNS
NCI-H23 lung = tested on: NCI-H23 lung
CAKI-1 renal = tested on: CAKI-1 renal
U251 CNS = tested on: U251 CNS
HL-60(TB) leukemia = tested on: HL-60(TB) leukemia
HS 578T breast = tested on: HS 578T breast
HCC-2998 colon = tested on: HCC-2998 colon
SN12C renal = tested on: SN12C renal

Measured: TGI

O=C1[C@H](O)[C@@H]2CCC[C@@]23CCCN13
> 100 µM: all assays above
